# Laboratory results published in PMC5465257, “Evaluation of JNJ-54717793 a Novel Brain Penetrant Selective Orexin 1 Receptor Antagonist in Two Rat Models of Panic Attack Provocation” (Frontiers in Pharmacology, 2017).
# Where two headings read alike, the source gives them in different places.
# Columns and labels:
# human OX2R = target: T1, human OX2R (Homo sapiens, UniProt O43614); test: Calcium mobilization functional assay, PFSK-1 cells, OX-B; format: cell-based
# T1 sequence (O43614 1-444): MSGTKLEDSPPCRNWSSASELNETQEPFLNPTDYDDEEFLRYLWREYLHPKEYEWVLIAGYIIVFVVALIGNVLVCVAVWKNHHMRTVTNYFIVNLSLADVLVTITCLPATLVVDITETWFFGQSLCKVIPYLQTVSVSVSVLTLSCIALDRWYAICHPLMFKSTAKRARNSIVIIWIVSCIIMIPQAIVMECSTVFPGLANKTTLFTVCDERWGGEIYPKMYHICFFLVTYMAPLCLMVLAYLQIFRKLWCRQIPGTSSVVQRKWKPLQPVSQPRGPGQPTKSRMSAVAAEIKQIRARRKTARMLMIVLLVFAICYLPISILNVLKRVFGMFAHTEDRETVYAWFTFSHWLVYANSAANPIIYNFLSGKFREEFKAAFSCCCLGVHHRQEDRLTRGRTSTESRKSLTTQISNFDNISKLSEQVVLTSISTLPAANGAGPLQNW
# Protocol: The human OX2R functional assay used PFSK-1 cells which are a human neuroectodermal cell line that innately expresses the OX2R. Since the intracellular calcium response is transient and not consistent with equilibrium assumptions, the assays were performed by giving a standard, EC80 dose of the OX agonist and calculating a pKB from inhibition of the agonist response by a dose range of the antagonists. The cells were plated in black 96 well tissue culture plates with clear bottoms at 50,000 cells/well and grown overnight at 37°C in 5% carbon dioxide (CO2). […] The cell plate was then transferred to the Molecular Devices Fluorometric Imaging Plate Reader (FLIPR) Tetra instrument, which adds the OX agonist and monitors changes in fluorescence which reflect intracellular calcium levels.
# (§1) Results were calculated using GraphPad Prism (San Diego, CA, United States) software. Raw data from the FLIPR Tetra was exported as the difference between maximum and minimum fluorescence observed for each well. A non-linear regression was used to determine the agonist EC50 and antagonist IC50 for each plate, then the antagonist KB was calculated according to Cheng and Prusoff ([Cheng and Prusoff, 1973]).
# [1] = tested on: panel of 50 receptors, ion channels and transporters; test: Selectivity binding panel of 50 receptors, ion channels and transporters (Eurofins); conditions: at 10 μM; any receptor/transporter/ion channel other than the OX1R
# Protocol: These assays were performed by Eurofins (Celles L’Evescault, France).
# wild-type mice = test: Sleep recording (EEG/EMG) in wild-type mice; format: in vivo, mouse
# Protocol: Sleep experiments were conducted in male Sprague-Dawley rats (350–450 g, Harlan Laboratories, Livermore, CA, United States) and in male C57Bl6 OX2R knockout (KO) and corresponding wild-type mice (30–35 g, Charles River Laboratories, San Diego, CA, United States) as described previously ([Dugovic et al., 2009]). Animals were chronically implanted with telemetric devices (Data Sciences International, St. Paul, MN, United States) for the recording of electroencephalogram (EEG) and electromyogram (EMG) signals. Polysomnographic waveforms were analyzed per 10-s epoch and classified as wake, non-rapid eye movement (NREM) or REM sleep by using the computer software program SleepSign (Kissei Comtec, Nagano, Japan). For each experiment, EEG and EMG signals were recorded for up to 6 h after administration of the tested compounds. Analysis of sleep parameters included latency to NREM sleep (defined as the time interval to the first six consecutive NREM epochs) and REM sleep (the first two consecutive REM epochs post-treatment), and the duration of NREM and REM.
# Results were averaged and expressed as mean ± SEM in defined time intervals. To determine whether differences were significant at a given interval, either paired Student’s t-test or two-way analysis of variance (ANOVA) (interaction time × treatment), repeated measures followed by Bonferroni post hoc test was performed.
# In the present study, the in vivo functional target engagement was investigated in a model of permanent inhibition of OX2R, and the effects of JNJ-5471773 on sleep-wake states were examined in mice lacking the OX2R relative to their corresponding wild-type mice. […] NREM sleep latency and duration were not affected in both genotypes (not shown).
# [2] = target: T2, OX1R in rat brain (tenia tecta) (Rattus norvegicus, UniProt P56718); test: Ex vivo OX1R receptor occupancy autoradiography in rat brain (tenia tecta), with plasma bioanalysis; conditions: 10 mg/kg subcutaneous; for receptor occupancy at 10 mg/kg: sc
# T2 construct: Twenty micron thick tissue sections at the level of the tenia tecta were prepared for autoradiography; from tissue; host or cells: brain sections (tenia tecta) of male Sprague-Dawley rats
# T2 sequence (P56718 1-416): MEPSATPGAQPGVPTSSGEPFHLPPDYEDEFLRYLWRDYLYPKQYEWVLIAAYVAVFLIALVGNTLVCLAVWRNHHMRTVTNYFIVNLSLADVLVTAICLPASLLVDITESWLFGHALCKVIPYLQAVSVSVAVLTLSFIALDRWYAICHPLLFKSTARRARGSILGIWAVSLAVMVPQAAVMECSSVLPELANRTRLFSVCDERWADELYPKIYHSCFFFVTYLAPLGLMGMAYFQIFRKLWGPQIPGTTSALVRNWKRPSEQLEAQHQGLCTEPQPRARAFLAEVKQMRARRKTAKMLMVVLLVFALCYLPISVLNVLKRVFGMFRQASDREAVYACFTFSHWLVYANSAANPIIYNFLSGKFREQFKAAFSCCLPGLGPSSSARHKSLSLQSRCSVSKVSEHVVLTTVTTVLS
# rat OX1R = target: T3, rat OX1R (Rattus norvegicus, UniProt P56718); test: Calcium mobilization functional assay, HEK-293 cells, OX-A EC80
# T3 sequence (P56718 1-416): T2 sequence (P56718 1-416)
# Protocol: Stably transfected CHO-K1 cells for the human OX1R or HEK-293 cells for the rat OX1R were used for the in vitro functional assays. […] Since the intracellular calcium response is transient and not consistent with equilibrium assumptions, the assays were performed by giving a standard, EC80 dose of the OX agonist and calculating a pKB from inhibition of the agonist response by a dose range of the antagonists. The cells were plated in black 96 well tissue culture plates with clear bottoms at 50,000 cells/well and grown overnight at 37°C in 5% carbon dioxide (CO2). […] The cell plate was then transferred to the Molecular Devices Fluorometric Imaging Plate Reader (FLIPR) Tetra instrument, which adds the OX agonist and monitors changes in fluorescence which reflect intracellular calcium levels.
# as §1
# human OX1R = target: T4, human OX1R (Homo sapiens, UniProt O43613); test: Human OX1R competitive radioligand binding ([3H]SB-674042); parameters: expressed in transfected cells; host or cells: clonal CHO-K1 cells
# T4 sequence (O43613 1-425): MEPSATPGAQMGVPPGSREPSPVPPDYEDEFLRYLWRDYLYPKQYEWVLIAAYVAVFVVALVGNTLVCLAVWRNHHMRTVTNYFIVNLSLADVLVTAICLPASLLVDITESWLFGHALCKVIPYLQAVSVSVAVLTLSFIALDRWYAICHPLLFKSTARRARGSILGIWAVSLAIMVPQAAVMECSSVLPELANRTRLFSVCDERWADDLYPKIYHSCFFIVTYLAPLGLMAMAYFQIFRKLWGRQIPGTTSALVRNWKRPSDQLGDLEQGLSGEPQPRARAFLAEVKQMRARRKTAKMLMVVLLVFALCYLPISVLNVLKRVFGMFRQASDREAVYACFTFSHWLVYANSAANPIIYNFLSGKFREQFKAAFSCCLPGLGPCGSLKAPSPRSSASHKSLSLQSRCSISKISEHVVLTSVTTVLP
# Protocol: Human or rat OX1R binding was measured in competitive radioligand binding assays using [^3H]SB-674042 (1-(5-(2-fluoro-phenyl)-2-methyl-thiazol-4-yl)-1-((S)-2-(5-phenyl-(1,3,4)oxadiazol-2-ylmethyl)-pyrrolidin-l-yl)-methanone) as a tracer (4 nM, specific activity 35 Ci/mmol) as previously described ([Langmead et al., 2004]). Cell membranes were prepared from clonal CHO K1 cells transfected with the human OX1R or clonal HEK-293 cells transfected with the rat OX1R. Dilutions of test compounds were made in Dulbecco’s PBS from 10 mM stocks dissolved in dimethyl sulfoxide. After a 60 min incubation at room temperature, binding reactions were filtered. The membranes were counted in a scintillation counter. Non-specific binding was determined in the presence of 10 μM almorexant. Affinities of compounds for the human OX2R were measured by competitive radioligand binding using tritiated N-ethyl-2-[(6-methoxy-pyridin-3-yl)-(toluene-2-sulfonyl)-amino]-N-pyridin-3-ylmethyl-acetamide (EMPA) (2 nM, specific activity 27 Ci/mmol) ([Malherbe et al., 2009]). Cell membranes were prepared from a stable pool of HEK-293 cells transfected with the human OX2R. Non-specific binding was determined with 10 μM almorexant.
# The Ki of the test compounds was calculated based on non-linear regression (one site competition) using Graphpad Prism. […]
structure (smiles),measurement,setting,value
"O=C(c1cccc(F)c1-c1ncccn1)N1[C@@H]2CC[C@H]1[C@H](Nc1cnc(C(F)(F)F)cn1)C2 [JNJ-54717793, (1S,2R,4R)-7-([(3-fluoro-2-pyrimidin-2-ylphenyl)carbonyl]-N-[5-(trifluoromethyl)pyrazin-2-yl]-7-azabicyclo[2.2.1]heptan-2-amine)]",Kb,human OX2R,309 nM
same,inhibition in selectivity panel,[1],< 50%
same,REM sleep duration,wild-type mice; 30 mg/kg oral,did not alter
same,REM sleep latency,wild-type mice; 30 mg/kg oral,slightly reduced
same,NREM sleep latency and duration,wild-type mice; 30 mg/kg oral (not shown),not affected
same,plasma concentration for maximal receptor occupancy,[2],2211 ± 339 ng/mL
same,receptor occupancy at 10 mg/kg,"[2]; 2 h time point, read-out: OX1R occupancy",65%
same,receptor occupancy at 10 mg/kg,"[2]; observed at 30 min, read-out: maximal OX1R occupancy",83 ± 7%
same,Kb,rat OX1R,35.5 nM
same,Ki,human OX1R,14.8 nM
same,binding selectivity at the human OX1R compared to the human OX2R,human OX1R; hOX1R versus hOX2R,50 fold
